Experimental findings from patent US12357666B1, “Traditional Chinese herbal plant composition for improving symptoms of liver cancer patients and compatibility method thereof” (The First Hospital of China Medical University, priority 2024, dated 2025) are described below.

One data set relates to Hep G2 cell line. As to the kind of experiment: Anti-tumor effect on tumor mice (subcutaneous Hep G2 model): tumor mass and tumor inhibition rate. It is filed as in vivo, BALB/c nude mice. To be noted: 28 d. The text has this: The effect example explored the anti-tumor effect of the herbal plant compositions of Embodiment 1 and Comparative Examples 1 to 3 on tumor mice, and a specific process is as follows.
(§1) Totally 90 male BALB/c nude mice aged 5 weeks and with body weight of 19-22 g were used.
(§2) A total of 80 BALB/c nude mice were randomly selected and injected subcutaneously with Hep G2 cell line (5×10^6 cells) in the right armpits.
Dosing Criteria: the conventional gavage dose of mice was […]. Generally, it is also necessary to increase the dose of the original medicinal material of the herbal plant composition by 1 time and decrease the dose of the original medicinal material of the herbal plant composition by 1 time for gavage.
Low-dose Embodiment 1 Herbal Plant Composition Group: 10 mice, administered 5.27 g/kg Embodiment 1 herbal plant composition by gavage.
Medium-dose Embodiment 1 Herbal Plant Composition Group: 10 mice, administered 10.53 g/kg Embodiment 1 herbal plant composition by gavage.
High-dose Embodiment 1 Herbal Plant Composition Group: 10 mice, administered 21.06 g/kg Embodiment 1 herbal plant composition by gavage.
High-dose Comparative Example 1 Herbal Plant Composition Group: 10 mice, administered 21.06 g/kg Comparative Example 1 herbal plant composition by gavage.
High-dose Comparative Example 2 Herbal Plant Composition Group: 10 mice, administered 21.06 g/kg Comparative Example 2 herbal plant composition by gavage.
High-dose Comparative Example 3 Herbal Plant Composition Group: 10 mice, administered 21.06 g/kg Comparative Example 3 herbal plant composition by gavage.
Western medicine control group: 10 mice, administered 0.03 g/kg 5-fluorouracil by gavage.
After 28 d of continuous administration, the mice in each group were weighed and killed by cervical dissection. […] After washing, the tumors and the organs were dried with filter paper, weighed to obtain mass and recorded, and the tumor inhibition rate and organ index were calculated. […]

Data set [1] in a line: Organ index (lung, liver, heart, kidney) of tumor mice. To be noted: 28 d. It is filed as in vivo, BALB/c nude mice.
Source text: as §1, §2
After 28 d of continuous administration, the mice in each group were weighed and killed by cervical dissection. Tumors and organs (lung, liver, heart and kidney) of the mice in each group were removed under sterile conditions, and washed with physiological saline. After washing, the tumors and the organs were dried with filter paper, weighed to obtain mass and recorded, and the tumor inhibition rate and organ index were calculated. The tumor mass of the mice was the average value of the tumor mass of each group of mice. Tumor inhibition rate=(tumor mass of mice in the model group-tumor mass of mice in the test group)/tumor mass of mice in the model group×100%. Organ index (mg/g)=organ mass (mg)/body mass (g) of mice.

As for `O=c1[nH]cc(F)c(=O)[nH]1` [Western medicine control group, 5-fluorouracil], the “Tumor mass” value with Hep G2 cell line (0.03 g/kg by gavage, Hep G2 tumor nude mice) came out at 0.27 g. Also, the “tumor inhibition rates in mice (in words)” value with Hep G2 cell line (Table 2, gavage) is “relatively high”. Besides, in the data set on Hep G2 cell line (tumor inhibition vs model group, 0.03 g/kg by gavage), the “Inhibition rate (%)” value is listed as 48.07%. In data set [1] (0.03 g/kg by gavage), the “Cardiac Index” value is 5.13 mg/g, the “Liver index” value is recorded as 42.78 mg/g, the “Lung index” value came to 5.96 mg/g and the “Renal index” value came out at 17.69 mg/g. The “liver index, renal index, lung index and cardiac index compared to the model group (in words)” value in data set [1] (Table 3, gavage) was “no significant change”.
